Literature values as cited in patent publication US20250066562A1, “METHOD AND MATERIAL FOR DIFFERENTIATED SEQUESTRATION OF SUBSTANCES OF DIFFERENT SUBSTANCE GROUPS WITH THE AID OF HYDROGELS CONTAINING SULPHATED OR SULPHONATED COMPONENTS” (LEIBNIZ-INSTITUT FÜR POLYMERFORSCHUNG E.V., priority 2017, published 2025).

Columns and labels:
thrombin = thrombin (Homo sapiens, UniProt P00734); details: according to Freudenberg et al., J. Controlled Release 220 (2015) 79-88
antithrombin = antithrombin (Homo sapiens, UniProt P01008); details: according to Freudenberg et al., J. Controlled Release 220 (2015) 79-88
Chain of antithrombin (P01008 33-464): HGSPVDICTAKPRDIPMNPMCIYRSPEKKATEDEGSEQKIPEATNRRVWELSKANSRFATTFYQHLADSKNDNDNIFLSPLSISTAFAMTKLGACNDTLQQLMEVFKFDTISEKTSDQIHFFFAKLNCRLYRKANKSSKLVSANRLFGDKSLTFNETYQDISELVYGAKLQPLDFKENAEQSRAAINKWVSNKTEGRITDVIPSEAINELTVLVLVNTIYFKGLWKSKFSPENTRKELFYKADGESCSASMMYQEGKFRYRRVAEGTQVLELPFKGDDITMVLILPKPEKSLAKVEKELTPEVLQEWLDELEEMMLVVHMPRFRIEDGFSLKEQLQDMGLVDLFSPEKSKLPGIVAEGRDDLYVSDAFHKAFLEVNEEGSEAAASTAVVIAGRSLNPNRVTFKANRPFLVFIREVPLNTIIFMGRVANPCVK

| Substance | Interaction with thrombin (thrombin) | Interaction with antithrombin (antithrombin) |
| --- | --- | --- |
| N-desulfated Heparin [GB2] | lack of interaction | lack of interaction |
| Heparin [GB1] | interaction | interaction |
